The values below come from PubChem BioAssay AID1963870 (Molecular Pharmacology Branch, DTP, NCI, 2024).

The term IC50 denotes the concentration needed to halve the response being measured. As a reminder, the viability, T/C is the ratio of treated to control.

SMILES strings stand for the structures. Values joined by “and” are separate entries in the source; they are usually repeats but may differ in a detail not shown here. Identical values can stand only once.

This test deals with 292921-168-R-J2-PDC KRAS tumor spheroid viability. In words: Anticancer human tumor 292921-168-R-J2-PDC patient-derived pancreatic carcinoma cell line growth inhibition [KRAS2]. The conditions noted are these: spheroids with HUVEC and MSC; for viability, T/C: stronger effect = lower value. The procedure, abridged: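 KRAS-mutant tumor cells were grown as spheroids with HUVEC endothelial cells and human MSCs as stroma. Targeted agents were tested alone and with KRAS pathway inhibitors. Doses started at or near clinical Cmax, or 10 microM, descending half-log.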
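Note: drug exposure lasted seven days after spheroids formed for three days.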
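Throughout, for viability, T/C: percent of DMSO vehicle control viability which is 100%.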

Regarding `COc1cc(Nc2ncc3c(n2)-c2ccc(Cl)cc2C(c2c(F)cccc2OC)=NC3)ccc1C(=O)O` + CC1OCC2(CCN(c3cnc(Sc4ccnc(N)c4Cl)c(N)n3)CC2)C1N, the IC50 runs as follows: (curve of first compound, second compound 0.1 µM) less than 31.6 nM; (curve of first compound, second compound 0.316 µM) less than 31.6 nM; (curve of first compound, second compound 1 µM) less than 31.6 nM; (curve of first compound, second compound 3.16 µM) less than 31.6 nM; (curve of first compound, second compound 10 µM) less than 31.6 nM. The viability, T/C (second compound 0.1 µM, first compound 0.0316 µM) was 22.8%; the viability, T/C (second compound 0.1 µM, first compound 0.1 µM) is 21.9%; the viability, T/C (second compound 0.1 µM, first compound 0.316 µM) was 22.8%; the viability, T/C (second compound 0.1 µM, first compound 1 µM) is 22.3%; the viability, T/C (second compound 0.1 µM, first compound 3.16 µM) was 17.3%; the viability, T/C (second compound 0.1 µM, first compound 10 µM) is 14.1%. In addition, the viability, T/C by setting is: (second compound 0.316 µM, first compound 0.0316 µM) 21.1%; (second compound 0.316 µM, first compound 0.1 µM) 18.9%; (second compound 0.316 µM, first compound 0.316 µM) 22.8%; (second compound 0.316 µM, first compound 1 µM) 19.9%; (second compound 0.316 µM, first compound 3.16 µM) 16.8%; (second compound 0.316 µM, first compound 10 µM) 10.6%. Further, the viability, T/C was 18.3% (second compound 1 µM, first compound 0.0316 µM); 15.5% (second compound 1 µM, first compound 0.1 µM); 18.5% (second compound 1 µM, first compound 0.316 µM); 15.5% (second compound 1 µM, first compound 1 µM); 13.6% (second compound 1 µM, first compound 3.16 µM); 10.8% (second compound 1 µM, first compound 10 µM). The viability, T/C by setting is: (second compound 3.16 µM, first compound 0.0316 µM) 18.1%; (second compound 3.16 µM, first compound 0.1 µM) 16.4%; (second compound 3.16 µM, first compound 0.316 µM) 16.9%; (second compound 3.16 µM, first compound 1 µM) 14.9%; (second compound 3.16 µM, first compound 3.16 µM) 12.8%; (second compound 3.16 µM, first compound 10 µM) 10.2%. Besides, the viability, T/C (second compound 10 µM, first compound 0.0316 µM) is 16%; the viability, T/C (second compound 10 µM, first compound 0.1 µM) is 16.7%; the viability, T/C (second compound 10 µM, first compound 0.316 µM) was 16.1%; the viability, T/C (second compound 10 µM, first compound 1 µM) was 15.7%; the viability, T/C (second compound 10 µM, first compound 3.16 µM) is 14%; the viability, T/C (second compound 10 µM, first compound 10 µM) was 10.3%.
Consider `CCN1CCN(Cc2ccc(Nc3ncc(F)c(-c4cc(F)c5nc(C)n(C(C)C)c5c4)n3)nc2)CC1`, for which the viability, T/C is, setting by setting: (compound 0.00316 µM) 88.5% and 85.8% and 83.2%; (compound 0.01 µM) 72.1% and 73% and 63.1%; (compound 0.0316 µM) 57.3% and 49.2% and 53%; (compound 0.1 µM) 36.8% and 43.1% and 36.2%; (compound 0.316 µM) 28.3% and 34.9% and 27.1%; (compound 1 µM) 17.8% and 23.3% and 20.6%. Besides, the IC50 (curve of compound) is 46.4 nM and 47.4 nM and 32.1 nM.
